Experimental data taken from patent US6617332B1, “Tan-1057 derivatives” (Bayer Aktiengesellschaft, priority 1998, dated 2003).
≈ marks a conversion by molar mass, not a printed value. Where a name gives a salt, the structure may show the parent alone. Read-outs that look alike come from different tables or passages of the source.

Columns and labels:
S. aureus 133 [1] = experiment: Determination of the minimum inhibitory concentration (MIC), liquid dilution test; assay type: cell-based; settings: Staphylococcus aureus
Protocol: (§1) The MIC was determined using the liquid dilution test. Overnight cultures of the test germs (S. aureus 133) in Isosensitest bouillon were diluted 1:1000 with foetal calf serum (FCS) or Isosensitest bouillon and incubated with dilutions of the test substances (successive dilutions of 1:2).
The cultures were incubated at 37° C. for 18-24 hours. In each case the lowest concentration of substance at which no visible bacterial growth took place, was defined as MIC.

[2] = Neutral Red vitality test using J774.A1 cells; assay type: cell-based, murine; settings: mouse; J774.A1 murine macrophage cells, 72 hours with substance; vitality reduced to 50% of untreated control
Protocol: (§2) Compatibility tests of the exemplary compounds were carried out using cultures of eukaryotic cells. Hepatocytes (HepG2) and murine macrophage cells (J774.A1) were used as indicator for organ-specific toxicity. The murine macrophage cell line used is a particularly sensitive indicator for toxic effects.
(§3) In each case 1.2×10^4 cells were incubated at 37° C. for 24 hours. Test substances were added at different concentrations, and the cells were incubated for another 72 hours. The cells were then treated with 50 μl of Neutral Red solution (Sigma, No. N 2889) for 2 hours, washed with PBS medium and denaturated using an ethanol/glacial acetic acid mixture.
(§4) The cultures were measured in an Elisa reader at 540 nm and 630 nm. The IC50 values were extrapolated and indicate at which concentration the vitality of the cells, measured by the uptake of Neutral Red, is reduced to 50%, compared to untreated control cells.

[3] = Vitality of HepG2 cells (Alamar Blue fluorescence); assay type: cell-based; settings: human, HepG2 liver cells, HepG2, 40-48 hours, highest test concentration 10 μg/ml
Protocol: (§5) The vitality and functionality of human HepG2 liver cells were examined after treatment with exemplary compounds. In each case 2×10^4−1×10^5 cells were incubated in RPMI 1640 (Whittacker) with 10% heat-inactivated foetal calf serum (Gibco) at 37° C. for 40-48 hours. The incubation volume of 200 μl contained the test substances in concentrations of 10, 2 and 0.4 μg/ml.
The vitality was examined after addition of 20 μl Alamar Blue (Biosource, Art. No. DAL 1100) by measuring the fluorescence (excitation: 544 nm, emission: 590 nm).

[4] = test system: apo B100 secretion of HepG2 cells; experiment: Functionality of HepG2 cells: secretion of apo B100 (ELISA); assay type: cell-based; settings: human, HepG2 liver cells, HepG2, 40-48 hours, highest test concentration 10 μg/ml
Protocol: as §5
(§6) The functionality of the HepG2 cells was examined by measuring the secretion of apo B100 and α2-macroglobulin after treatment. To this end, the protein content of the culture supernatants was determined by ELISA after incubation for 40-48 hours. Apo B100 was bound using rabbit ahLDL (1 mg/ml) and quantified using peroxidase-conjugated monoclonal antibodies (ahLDL_POD), with addition of the substrate TMB/H2O2. The optical density was measured at 450 nm.

[5] = test system: α2-macroglobulin secretion of HepG2 cells; experiment: Functionality of HepG2 cells: secretion of α2-macroglobulin (ELISA); assay type: cell-based; settings: human, HepG2 liver cells, HepG2, 40-48 hours, highest test concentration 10 μg/ml
Protocol: as §5, §6
To determine α2-macroglobulin, the ELISA system from Biodesign (Art.No. H 45205M) was used. Quantification was likewise carried out using the substrate TMB/H2O2, and measuring the optical density at 450 nm.

S. aureus 133 [6] = experiment: Test of antibacterial activity in vivo (infected mice, survival); settings: mice infected i.p. with 1×10^6 S. aureus 133 in 5% mucine; intravenous administration 30 minutes after infection
Protocol: Mice were infected with 1×10^6 bacteria of the strain S. aureus 133 in 5% mucine (i.p.) and treated by intravenous administration of the test substances 30 minutes after the infection. Without treatment, all infected animals died. The therapeutic doses for TAN 1057 A,B and the compound of Example 4 at which all infected animals survived (=ED100) was 1 mg/kg for both substances.

J774.A1 cells = experiment: Neutral Red vitality test using J774.A1 cells; assay type: cell-based, murine; settings: compatibility tests with eukaryotic cells: hepatocytes (HepG2) and murine macrophage cells (J774.A1)
Protocol: as §2, §3, §4

[7] = test system: TAN 1057 A,B-resistant S. aureus 133; experiment: MIC test with TAN 1057 A,B-resistant isolates from stepwise selection; assay type: cell-based; settings: Staphylococcus aureus
Protocol: as §1
Bacteria of the strain S. aureus 133 were incubated with different concentrations of TAN 1057 A,B for 24 hours. […] This process was repeated for several days, selecting step by step bacteria having increased resistance to TAN 1057 A,B. The MIC of highly resistant S. aureus 133 bacteria was >100 μg/ml (initial MIC: <0.1 μg/ml). The bacteria from this selection series, having an MIC of <0.1, 0.8, 25, 100 and >100 μg/ml, were used for tests. It is thus possible to identify TAN 1057 A,B derivatives having antibacterial activity against TAN 1057 A,B-resistant cells.
The S. aureus 133 isolates with medium and high resistance to TAN 1057 A,B were tested in comparison to the derivatives of the invention.

[8] = Acute toxicity in mice (LD50); settings: mouse, in vivo, ip, intraperitoneal administration, dose at which 50% of treated mice survive
Protocol: The acute toxicity of the substances was determined by determining the dose at which 50% of the treated mice survive (=LD50). Following intraperitoneal administration of the test substances, the LD50 for TAN 1057 A,B was 100 mg/kg. The LD50 for the compound of Example 4 was >400 mg/kg.

[9] = S. aureus 133, overnight culture diluted 1:1000 with foetal calf serum, 37° C., 18-24 hours, lowest concentration without visible growth, read-out: MIC in FCS (S.aureus; μg/ml)
[10] = read-out: MIC, isolate with medium resistance to TAN 1057 A,B

| SMILES | MIC (S. aureus 133 [1]; [9]) | IC50 at 72 h [2] | also measured |
| --- | --- | --- | --- |
| CN(C(=O)CC[C@@H](N)CCCN)C1CNC(NC(N)=O)=NC1=O (stereo partly drawn) [Example 11, (4′S,5R,S)-5-[N-Methyl-N-(4′,7′-diaminoheptanoyl)amino]-5,6-dihydro-2-ureido-4(1H)-pyrimidone Dihydrochloride] | 3.2 µg/mL | – | – |
| CN(C(=O)C[C@@H](N)CCCCN)C1CNC(NC(N)=O)=NC1=O (stereo partly drawn) [Example 5, (3′S,5R,S)-5-[N-Methyl-N-(3′,7′-diaminoheptanoyl)amino]-5,6-dihydro-2-ureido-4(1H)-pyrimidone Dihydrochloride] | 0.1 µg/mL | 6 µg/mL | – |
| CN(C(=O)CC(N)c1cccc(NC(=N)N)c1)C1CNC(NC(N)=O)=NC1=O (stereo not drawn) [Example 2, (3′RS,5RS)-5-{N-Methyl-N-[3′-amino-3′-(3-guanidylphenyl)propionyl]amino}-5,6-dihydro-2-ureido-4(1H)-pyrimidone Dihydrochloride] | 50 µg/mL | 6 µg/mL | IC50 [3]: > 10 µg/mL; IC50 [4]: > 10 µg/mL; IC50 [5]: > 10 µg/mL |
| CN(C(=O)C[C@@H](N)CNC(=N)N)C1CNC(NC(N)=O)=NC1=O (stereo partly drawn) [TAN 1057 A,B, reference compound] | 0.1 µg/mL (≈ 0.305 µM) | 0.25 µg/mL (≈ 0.764 µM) | ED100 (therapeutic dose at which all infected animals survived) (S. aureus 133 [6]): 1 mg/kg; toxicity (in words) (J774.A1 cells): pronounced toxicity in the liver and cells of the immune system; MIC ([7]; read-out: MIC of highly resistant S. aureus 133 bacteria): > 100 µg/mL; MIC [7, 10]: 0.8 µg/mL (≈ 2.44 µM); MIC (S. aureus 133 [1]; S. aureus 133 before selection with TAN 1057 A,B, read-out: initial MIC): < 0.1 µg/mL; LD50 [8]: 100 mg/kg; IC50 [5]: 7 µg/mL (≈ 21.4 µM) |
| CN(C(=O)CC(N)CCCCCN)C1CNC(NC(N)=O)=NC1=O [Example 17, (3′R,S,5R,S)-5-[N-Methyl-N-(3′,8′-diaminooctanoyl)amino]-5,6-dihydro-2-ureido-4(1H)-pyrimidone Dihydrochloride] | 6.3 µg/mL | – | – |
| CN(C(=O)C[C@@H](N)CCC(N)=O)C1CNC(NC(N)=O)=NC1=O.Cl (stereo partly drawn) [Example 13, (3′R,5R,S)-5-[N-Methyl-N-(3′-amino-5′-carbamoyl-pentanoyl)amino]-5,6-dihydro-2-ureido-4(1H)-pyrimidone Dihydrochloride] | 12.5 µg/mL | – | – |
| CN(C(=O)C[C@@H](N)CCCCNC(=N)N)C1CNC(NC(N)=O)=NC1=O (stereo partly drawn) [Example 1, (3′S,5R,S)-5-[N-Methyl-N-(3′-amino-7′-guanidinoheptanoyl)amino]-5,6-dihydro-2-ureido-4(1H)-pyrimidone Dihydrochloride] | 0.2 µg/mL | 3 µg/mL | IC50 [3]: > 10 µg/mL; IC50 [4]: > 10 µg/mL; IC50 [5]: > 10 µg/mL |
| CN(C(=O)CC(N)CCC#N)C1CNC(NC(N)=O)=NC1=O.Cl [Example 18, (3′R,S,5R,S)-5-[N-Methyl-N-(3′-amino-5′-cyanopentanoyl)amino]-5,6-dihydro-2-ureido-4(1H)-pyrimidone Hydrochloride] | 12.5 µg/mL | – | – |
| CN(C(=O)C[C@H](N)CCCN)C1CNC(NC(N)=O)=NC1=O (stereo partly drawn) [Example 12, (3′R,5R,S)-5-[N-Methyl-N-(3′,6′-diaminohexanoyl)amino]-5,6-dihydro-2-ureido-4(1H)-pyrimidone Dihydrochloride] | 6.3 µg/mL | – | – |
| CN(C(=O)C[C@@H](N)CCN)C1CNC(NC(N)=O)=NC1=O (stereo partly drawn) [Example 8, (3′S,5R,S)-5-[N-Methyl-N-(3′,5′-diaminopentanoyl)amino]-5,6-dihydro-2-ureido-4(1H)-pyrimidone Dihydrochloride] | 1.6 µg/mL | 1.8 µg/mL | – |
| COC(=O)NCCC[C@H](N)CC(=O)N(C)C1CNC(NC(N)=O)=NC1=O.Cl (stereo partly drawn) [Example 16, (3′S,5R,S)-5-[N-Methyl-N-(3′-amino-6′-methoxycarbonylaminohexanoyl)-amino]-5,6-dihydro-2-ureido-4(1H)-pyrimidone Hydrochloride] | 100 µg/mL | – | – |
| CCN(C(=O)C[C@@H](N)CCCNC(=N)N)C1CNC(NC(N)=O)=NC1=O (stereo partly drawn) [Example 15, (3′S,5R,S)-5-[N-Ethyl-N-(3′-amino-6′-guanidinohexanoyl)amino]-5,6-dihydro-2-ureido-4(1H)-pyrimidone Dihydrochloride] | 100 µg/mL | – | – |
| NCCC[C@H](N)CC(=O)NC1CNC(NC(N)=O)=NC1=O (stereo partly drawn) [Example 14, (3′R,5R,S)-5-[N-(3′,6′-Diaminohexanoyl)amino]-5,6-dihydro-2-ureido-4(1H)-pyrimidone Dihydrochloride] | 12.5 µg/mL | – | – |
| CN(C(=O)C[C@@H](N)CCCN)C1CNC(NC(N)=O)=NC1=O (stereo partly drawn) [Example 4, (3′S,5R,S)-5-[N-Methyl-N-(3′,6′-diaminohexanoyl)amino]-5,6-dihydro-2-ureido-4(1H)-pyrimidone Dihydrochloride] | 0.4 µg/mL | 25 µg/mL | ED100 (therapeutic dose at which all infected animals survived) (S. aureus 133 [6]): 1 mg/kg; MIC [7, 10]: 0.2 µg/mL; LD50 [8]: > 400 mg/kg |
| CCN(C(=O)C[C@@H](N)CCCNC(=N)N)C1CNC(NC(N)=O)=NC1=O (stereo partly drawn) (as salt: hydrochloride) [Example 15, (3′S,5R,S)-5-[N-Ethyl-N-(3′-amino-6′-guanidinohexanoyl)amino]-5,6-dihydro-2-ureido-4(1H)-pyrimidone Dihydrochloride] | – | – | melting point: 170 to 172 °C |
| CCN(C(=O)C[C@@H](N)CCCN)C1CNC(NC(N)=O)=NC1=O (stereo partly drawn) [Example 10, (3′S,5R,S)-5-[N-Ethyl-N-(3′,6′-diaminohexanoyl)amino]-5,6-dihydro-2-ureido-4(1H)-pyrimidone Dihydrochloride] | 3.2 µg/mL | – | – |
| CN(C(=O)C[C@@]1(N)C[C@H]1CCNC(=N)N)C1CNC(NC(N)=O)=NC1=O (stereo partly drawn) [Example 3, 5-{N-Methyl-N-2′-[1-amino-2-(2-guanidinoethyl)cyclopropyl]acetamino}-5,6-dihydro-2-ureido-4(1H)-pyrimidone Dihydrochloride] | 100 µg/mL | 40 µg/mL | – |
| N=C(N)NCCC[C@H](N)CC(=O)NC1CNC(NC(N)=O)=NC1=O (stereo partly drawn) [Example 9, (3′R,5R,S)-5-[N-(3′-amino-6′-guanidinohexanoyl)amino]-5,6-dihydro-2-ureido-4(1H)-pyrimidone Dihydrochloride] | 1.6 µg/mL | – | – |
| CNC(=N)NCCC[C@H](N)CC(=O)N(C)C1CNC(NC(N)=O)=NC1=O (stereo partly drawn) [Example 6, (3′S,5R,S)-5-{N-Methyl-N-[3′-amino-6′-(N′-methylguanidino)hexanoyl]amino}-5,6-dihydro-2-ureido-4(1H)-pyrinidone Dihydrochloride] | 0.8 µg/mL | 5.5 µg/mL | – |
| CCNCCC[C@H](N)CC(=O)N(C)C1CNC(NC(N)=O)=NC1=O (stereo partly drawn) [Example 7, (3′S,5R,S)-5-[N-Methyl-N-(3′-amino-6′-ethylaminohexanoyl)amino]-5,6-dihydro-2-ureido-4(1H)-pyrimidone Dihydrochloride] | 0.8 µg/mL | 50 µg/mL | – |
